# Measured values: patent US11382328B2, “Rapid drug discovery methods for pathogen inactivation” (priority 2019, dated 2022)
# Tested on: E. coli strain W3110
# Experiment: Synergy assays: Biolog chemical sensitivity panels with Group IB metal, coefficient of drug interaction (CDI) from relative growth
# Format: cell-based
# Settings: for CDI (coefficient of drug interaction), copper mixed with biocide: Copper (mM) section
# [1] = 1st of 3 copper concentrations (value not shown), 3rd of four biocide concentrations
# [2] = 1st of 3 copper concentrations (value not shown), 4th of four biocide concentrations
# [3] = 2nd of 3 copper concentrations (value not shown), 3rd of four biocide concentrations
# [4] = 2nd of 3 copper concentrations (value not shown), 4th of four biocide concentrations
# [5] = 3rd of 3 copper concentrations (value not shown), 3rd of four biocide concentrations
# [6] = 3rd of 3 copper concentrations (value not shown), 4th of four biocide concentrations
# [7] = Gold section of Table 5, first of three gold concentrations (μM, value not given), biocide concentration 1 of 4
# [8] = Gold section of Table 5, first of three gold concentrations (μM, value not given), biocide concentration 2 of 4
# [9] = Gold section of Table 5, first of three gold concentrations (μM, value not given), biocide concentration 4 of 4
# [10] = Gold section of Table 5, second of three gold concentrations (μM, value not given), biocide concentration 2 of 4
# [11] = Gold section of Table 5, second of three gold concentrations (μM, value not given), biocide concentration 3 of 4
# [12] = Gold section of Table 5, second of three gold concentrations (μM, value not given), biocide concentration 4 of 4
# [13] = Gold section of Table 5, third of three gold concentrations (μM, value not given), biocide concentration 1 of 4
# [14] = Gold section of Table 5, third of three gold concentrations (μM, value not given), biocide concentration 2 of 4
# [15] = Gold section of Table 5, third of three gold concentrations (μM, value not given), biocide concentration 3 of 4
# [16] = Gold section of Table 5, third of three gold concentrations (μM, value not given), biocide concentration 4 of 4
# [17] = Silver 0.5 μM, 1st of four biocide concentrations, E. coli
# [18] = Silver 0.5 μM, 2nd of four biocide concentrations, E. coli
# [19] = Silver 0.5 μM, 3rd of four biocide concentrations, E. coli
# [20] = Silver 0.5 μM, 4th of four biocide concentrations, E. coli
# [21] = Silver 1.0 μM, 1st of four biocide concentrations, E. coli
# [22] = Silver 1.0 μM, 2nd of four biocide concentrations, E. coli
# [23] = Silver 1.0 μM, 3rd of four biocide concentrations, E. coli
# [24] = Silver 1.0 μM, 4th of four biocide concentrations, E. coli
# [25] = Silver 5.0 μM, 1st of four biocide concentrations, E. coli
# [26] = Silver 5.0 μM, 2nd of four biocide concentrations, E. coli
# [27] = Silver 5.0 μM, 3rd of four biocide concentrations, E. coli
# [28] = Silver 5.0 μM, 4th of four biocide concentrations, E. coli
# [29] = Gold section of Table 5, first of three gold concentrations (μM, value not given), biocide concentration 3 of 4
# [30] = […], biocide concentration 3 of 4, E. coli
# [31] = […], biocide concentration 4 of 4, E. coli
# [32] = Gold 5 μM, biocide concentration 4 of 4, E. coli
# [33] = Gold 25 μM, biocide concentration 4 of 4, E. coli
compound,measurement,setting,value
phleomycin,"CDI (coefficient of drug interaction), copper mixed with biocide","1st of 3 copper concentrations (value not shown), 1st of four biocide concentrations",0.99
same,"CDI (coefficient of drug interaction), copper mixed with biocide","1st of 3 copper concentrations (value not shown), 2nd of four biocide concentrations",1.27
same,"CDI (coefficient of drug interaction), copper mixed with biocide",[1],Tox
same,"CDI (coefficient of drug interaction), copper mixed with biocide",[2],Tox
same,"CDI (coefficient of drug interaction), copper mixed with biocide","2nd of 3 copper concentrations (value not shown), 1st of four biocide concentrations",1.09
same,"CDI (coefficient of drug interaction), copper mixed with biocide","2nd of 3 copper concentrations (value not shown), 2nd of four biocide concentrations",1.19
same,"CDI (coefficient of drug interaction), copper mixed with biocide",[3],Tox
same,"CDI (coefficient of drug interaction), copper mixed with biocide",[4],Tox
same,"CDI (coefficient of drug interaction), copper mixed with biocide","3rd of 3 copper concentrations (value not shown), 1st of four biocide concentrations",0.99
same,"CDI (coefficient of drug interaction), copper mixed with biocide","3rd of 3 copper concentrations (value not shown), 2nd of four biocide concentrations",0.96
same,"CDI (coefficient of drug interaction), copper mixed with biocide",[5],Tox
same,"CDI (coefficient of drug interaction), copper mixed with biocide",[6],Tox
same,CDI (coefficient of drug interaction),[7],0.98
same,CDI (coefficient of drug interaction),[8],1.06
same,CDI (coefficient of drug interaction),[9],1.33
same,CDI (coefficient of drug interaction),[10],1.03
same,CDI (coefficient of drug interaction),[11],0.88
same,CDI (coefficient of drug interaction),[12],0.87
same,CDI (coefficient of drug interaction),[13],0.99
same,CDI (coefficient of drug interaction),[14],0.96
same,CDI (coefficient of drug interaction),[15],0.92
same,CDI (coefficient of drug interaction),[16],1.29
same,"CDI (coefficient of drug interaction), silver + biocide",[17],0.81
same,"CDI (coefficient of drug interaction), silver + biocide",[18],0.61
same,"CDI (coefficient of drug interaction), silver + biocide",[19],0.68
same,"CDI (coefficient of drug interaction), silver + biocide",[20],Tox
same,"CDI (coefficient of drug interaction), silver + biocide",[21],0.89
same,"CDI (coefficient of drug interaction), silver + biocide",[22],0.81
same,"CDI (coefficient of drug interaction), silver + biocide",[23],0.81
same,"CDI (coefficient of drug interaction), silver + biocide",[24],Tox
same,"CDI (coefficient of drug interaction), silver + biocide",[25],1.32
same,"CDI (coefficient of drug interaction), silver + biocide",[26],1.43
same,"CDI (coefficient of drug interaction), silver + biocide",[27],1.37
same,"CDI (coefficient of drug interaction), silver + biocide",[28],Tox
O=C1C2CC=CCC2C(=O)N1SC(Cl)(Cl)Cl (stereo not shown) [captan],"CDI (coefficient of drug interaction), silver + biocide",[20],Tox
same,"CDI (coefficient of drug interaction), silver + biocide",[24],Tox
same,"CDI (coefficient of drug interaction), silver + biocide",[28],Tox
O=C(O)CI [lodoacetate],CDI (coefficient of drug interaction),[7],0.77
same,CDI (coefficient of drug interaction),[8],Tox
same,CDI (coefficient of drug interaction),[29],Tox
same,CDI (coefficient of drug interaction),[9],Tox
same,CDI (coefficient of drug interaction),"Gold section of Table 5, second of three gold concentrations (μM, value not given), biocide concentration 1 of 4",1.00
same,CDI (coefficient of drug interaction),[10],Tox
same,CDI (coefficient of drug interaction),[11],Tox
same,CDI (coefficient of drug interaction),[12],Tox
same,CDI (coefficient of drug interaction),[13],0.88
same,CDI (coefficient of drug interaction),[14],Tox
same,CDI (coefficient of drug interaction),[15],Tox
same,CDI (coefficient of drug interaction),[16],Tox
CCn1cc(C(=O)O)c(=O)c2cc(F)c(N3CCNC(C)C3)c(F)c21 (stereo not shown) [lomefloxacin],CDI (coefficient of drug interaction),"Gold 50 μM, biocide concentration 4 of 4, E. coli",Tox
NC(=O)NN=Cc1ccc([N+](=O)[O-])o1 [5-Nitro-2-furaldehyde semicarbazone],CDI (coefficient of drug interaction),[30],Tox
same,CDI (coefficient of drug interaction),[31],Tox
O=[N+]([O-])c1ncc[nH]1 [2-nitroimidazole],"CDI (coefficient of drug interaction), copper mixed with biocide",[1],Tox
same,"CDI (coefficient of drug interaction), copper mixed with biocide",[2],Tox
same,"CDI (coefficient of drug interaction), copper mixed with biocide",[3],Tox
same,"CDI (coefficient of drug interaction), copper mixed with biocide",[4],Tox
same,"CDI (coefficient of drug interaction), copper mixed with biocide",[5],Tox
same,"CDI (coefficient of drug interaction), copper mixed with biocide",[6],Tox
same,CDI (coefficient of drug interaction),[29],Tox
same,CDI (coefficient of drug interaction),[9],Tox
same,CDI (coefficient of drug interaction),[11],Tox
same,CDI (coefficient of drug interaction),[12],Tox
same,CDI (coefficient of drug interaction),[15],Tox
same,CDI (coefficient of drug interaction),[16],Tox
same,"CDI (coefficient of drug interaction), silver + biocide",[19],Tox
same,"CDI (coefficient of drug interaction), silver + biocide",[20],Tox
same,"CDI (coefficient of drug interaction), silver + biocide",[23],Tox
same,"CDI (coefficient of drug interaction), silver + biocide",[24],Tox
same,"CDI (coefficient of drug interaction), silver + biocide",[27],Tox
same,"CDI (coefficient of drug interaction), silver + biocide",[28],Tox
"c1ccc(-c2ccccn2)nc1 [2,2′-dipyridyl]",CDI,"Copper 0.1 mM, biocide concentration 1 of 4",0.76
same,CDI,"Copper 0.1 mM, biocide concentration 2 of 4",Tox
same,CDI,"Copper 0.1 mM, biocide concentration 3 of 4",Tox
same,CDI,"Copper 0.1 mM, biocide concentration 4 of 4",Tox
same,CDI,"Copper 0.5 mM, biocide concentration 1 of 4",0.61
same,CDI,"Copper 0.5 mM, biocide concentration 2 of 4",Tox
same,CDI,"Copper 0.5 mM, biocide concentration 3 of 4",Tox
same,CDI,"Copper 0.5 mM, biocide concentration 4 of 4",Tox
same,CDI,"Copper 1.0 mM, biocide concentration 1 of 4",0.76
same,CDI,"Copper 1.0 mM, biocide concentration 2 of 4",Tox
same,CDI,"Copper 1.0 mM, biocide concentration 3 of 4",Tox
same,CDI,"Copper 1.0 mM, biocide concentration 4 of 4",Tox
same,CDI (coefficient of drug interaction),"Gold 5 μM, biocide concentration 2 of 4, E. coli",Tox
same,CDI (coefficient of drug interaction),"Gold 5 μM, biocide concentration 3 of 4, E. coli",Tox
same,CDI (coefficient of drug interaction),[32],Tox
same,CDI (coefficient of drug interaction),"Gold 25 μM, biocide concentration 1 of 4, E. coli",1.09
same,CDI (coefficient of drug interaction),"Gold 25 μM, biocide concentration 2 of 4, E. coli",Tox
same,CDI (coefficient of drug interaction),"Gold 25 μM, biocide concentration 3 of 4, E. coli",Tox
same,CDI (coefficient of drug interaction),[33],Tox
same,"CDI (coefficient of drug interaction), silver + biocide",[17],1.55
same,"CDI (coefficient of drug interaction), silver + biocide",[18],Tox
same,"CDI (coefficient of drug interaction), silver + biocide",[19],Tox
same,"CDI (coefficient of drug interaction), silver + biocide",[20],Tox
same,"CDI (coefficient of drug interaction), silver + biocide",[21],1.07
same,"CDI (coefficient of drug interaction), silver + biocide",[22],Tox
same,"CDI (coefficient of drug interaction), silver + biocide",[23],Tox
same,"CDI (coefficient of drug interaction), silver + biocide",[24],Tox
same,"CDI (coefficient of drug interaction), silver + biocide",[25],1.21
same,"CDI (coefficient of drug interaction), silver + biocide",[26],Tox
same,"CDI (coefficient of drug interaction), silver + biocide",[27],Tox
same,"CDI (coefficient of drug interaction), silver + biocide",[28],Tox
same,CDI (coefficient of drug interaction),"[…], biocide concentration 1 of 4, E. coli",0.72
same,CDI (coefficient of drug interaction),"[…], biocide concentration 2 of 4, E. coli",Tox
same,CDI (coefficient of drug interaction),[30],Tox
same,CDI (coefficient of drug interaction),[31],Tox
CCn1cc(C(=O)O)c(=O)c2ccc(C)nc21 [Nalidixic Acid],"CDI (coefficient of drug interaction), copper mixed with biocide",[1],Tox
same,"CDI (coefficient of drug interaction), copper mixed with biocide",[2],Tox
same,"CDI (coefficient of drug interaction), copper mixed with biocide",[3],Tox
same,"CDI (coefficient of drug interaction), copper mixed with biocide",[4],Tox
same,"CDI (coefficient of drug interaction), copper mixed with biocide",[5],Tox
same,"CDI (coefficient of drug interaction), copper mixed with biocide",[6],Tox
same,CDI (coefficient of drug interaction),[29],Tox
same,CDI (coefficient of drug interaction),[9],Tox
same,CDI (coefficient of drug interaction),[11],Tox
same,CDI (coefficient of drug interaction),[12],Tox
same,CDI (coefficient of drug interaction),[15],Tox
same,CDI (coefficient of drug interaction),[16],Tox
same,"CDI (coefficient of drug interaction), silver + biocide",[19],Tox
same,"CDI (coefficient of drug interaction), silver + biocide",[20],Tox
same,"CDI (coefficient of drug interaction), silver + biocide",[23],Tox
same,"CDI (coefficient of drug interaction), silver + biocide",[24],Tox
same,"CDI (coefficient of drug interaction), silver + biocide",[27],Tox
same,"CDI (coefficient of drug interaction), silver + biocide",[28],Tox
CCCCCCCCCCCCNC(=N)N [dodine],"CDI (coefficient of drug interaction), copper mixed with biocide",[2],Tox
same,"CDI (coefficient of drug interaction), copper mixed with biocide",[3],Tox
same,"CDI (coefficient of drug interaction), copper mixed with biocide",[4],Tox
same,"CDI (coefficient of drug interaction), copper mixed with biocide",[6],Tox
same,CDI (coefficient of drug interaction),[9],Tox
same,CDI (coefficient of drug interaction),[12],Tox
same,CDI (coefficient of drug interaction),[16],Tox
same,"CDI (coefficient of drug interaction), silver + biocide",[19],Tox
same,"CDI (coefficient of drug interaction), silver + biocide",[20],Tox
same,"CDI (coefficient of drug interaction), silver + biocide",[23],Tox
same,"CDI (coefficient of drug interaction), silver + biocide",[24],Tox
same,"CDI (coefficient of drug interaction), silver + biocide",[27],Tox
same,"CDI (coefficient of drug interaction), silver + biocide",[28],Tox
Oc1ccccc1-c1ccccc1 [2-phenylphenol],"CDI (coefficient of drug interaction), copper mixed with biocide",[2],Tox
same,"CDI (coefficient of drug interaction), copper mixed with biocide",[4],Tox
same,"CDI (coefficient of drug interaction), copper mixed with biocide",[6],Tox
same,CDI (coefficient of drug interaction),[32],Tox
same,CDI (coefficient of drug interaction),[33],Tox
same,"CDI (coefficient of drug interaction), silver + biocide",[19],Tox
same,"CDI (coefficient of drug interaction), silver + biocide",[20],Tox
same,"CDI (coefficient of drug interaction), silver + biocide",[23],Tox
same,"CDI (coefficient of drug interaction), silver + biocide",[24],Tox
same,"CDI (coefficient of drug interaction), silver + biocide",[27],Tox
same,"CDI (coefficient of drug interaction), silver + biocide",[28],Tox
same,CDI (coefficient of drug interaction),[31],Tox
